Results on five compounds are retold here after patent publication US12227501B2, “3-amino-2-[2-(acylamino)pyridin-4-yl]-1,5,6,7-tetrahydro-4h-pyrrolo[3,2-c]pyridin-4-one as CSNK1 inhibitors” (Bayer Aktiengesellschaft, priority 2019, dated 2025).

Common to all, as to type: biochemical
Experiment [1] concerns the target T1, human CSNK1A1 (Homo sapiens (Human), UniProt P48729). The experiment is described as follows: CSNK1A1 High ATP Assay (ADP-Glo, 1 mM ATP). The following applies: read-out: CSNK1A1 high ATP assay IC50 [mol/l] (median). Put shortly: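 GST-tagged full-length human CSNK1A1 from baculovirus-infected insect cells (typically about 0.4 ng/μL), pre-incubated with compound 15 min at 22 °C. Reaction with biotinylated peptide biotin-Ahx-KRRRAL-pS-VASLPGL at 1 mM ATP. ADP formed read by ADP-Glo luminescence.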

For experiment [2], the target named is wild-type Epidermal Growth Factor Receptor (EGFR) (Homo sapiens (Human), UniProt P00533). The experiment is described as follows: WT-EGFR Kinase Assay (TR-FRET, 2 mM ATP). The following applies: read-out: EGFR Wildtyp- 2 mM ATP IC50 [mol/l] (median). A general note: In TR-FRET formats the signal depends on donor and acceptor labels being close together.
Chain of wild-type Epidermal Growth Factor Receptor (EGFR) (P00533 669-1210): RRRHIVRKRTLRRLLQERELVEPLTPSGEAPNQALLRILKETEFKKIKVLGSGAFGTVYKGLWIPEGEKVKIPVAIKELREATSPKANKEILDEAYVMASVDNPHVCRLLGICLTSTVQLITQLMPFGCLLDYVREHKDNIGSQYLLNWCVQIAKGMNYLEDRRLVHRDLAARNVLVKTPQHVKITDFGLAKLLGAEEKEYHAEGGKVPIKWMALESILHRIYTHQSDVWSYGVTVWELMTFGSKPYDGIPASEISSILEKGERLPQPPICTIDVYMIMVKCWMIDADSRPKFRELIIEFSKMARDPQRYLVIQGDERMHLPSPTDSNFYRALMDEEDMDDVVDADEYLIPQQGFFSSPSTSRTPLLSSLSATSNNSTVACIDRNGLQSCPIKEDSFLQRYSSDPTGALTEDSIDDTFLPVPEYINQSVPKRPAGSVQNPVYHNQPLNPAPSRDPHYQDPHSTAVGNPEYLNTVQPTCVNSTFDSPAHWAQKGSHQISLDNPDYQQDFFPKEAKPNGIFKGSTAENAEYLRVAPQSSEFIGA
For experiment [3], the target named is T1, human CSNK1A1. The experiment is described as follows: CSNK1A1 Assay 1 (ADP-Glo, 1 μM ATP). Particulars: substrate Btn-Ahx-SGSEGDSESGEEEG, read-out: CSNK1A1 Assay 1 IC50 [mol/l] (median). On the procedure:
CSNK1A1-inhibitory activity of compounds of the present invention in presence of 1 μM adenosine-tri-phosphate (ATP) was quantified employing the CSNK1A1 assay as described in the following paragraphs. In essence, the enzyme activity is measured by quantification of the adenosine-di-phosphate (ADP), which is generated as a co-product of the enzyme reaction, via the “ADP-Glo™ Kinase Assay” kit from the company Promega. This detection system works as follows: In a first step the ATP not consumed in the kinase reaction is quantitatively converted to cAMP employing an adenylate cyclase (“ADP-Glo-reagent”), then the adenylate cyclase is stopped and the ADP generated in the kinase reaction converted to ATP which generates in a luciferase-based reaction a glow-luminescence signal (“Kinase Detection Reagent”). Recombinant fusion protein of N-terminal Glutathion-S-Transferase (GST) and full-length human CSNK1A1, expressed by baculovirus infected insect cells and purified via Glutathion affinity chromatography, was purchased from Life Technologies (product no. PV4174) and used as enzyme. As substrate for the kinase reaction the biotinylated peptide Btn-Ahx-[…] (C-terminus in amide form) was used which can be purchased e.g. from the company Biosyntan (Berlin-Buch, Germany).
For the assay 50 nl of a 100 fold concentrated solution of the test compound in DMSO was pipetted into a white 1536-well microtiter plate (Greiner Bio-One, Frickenhausen, Germany), 2 μL of a solution of CSNK1A1 in aqueous assay buffer [50 mM HEPES pH 7.5, 10% (v/v) glycerol, 10 mM MgCl2, 50 mM NaCl, 1 mM dithiothreitol, 0.01% (w/v) bovine serum albumin, 0.01% (v/v) Triton X-100] were added and the mixture was incubated for 15 min at 22° C. to allow pre-binding of the test compounds to the enzyme before the start of the kinase reaction. […] The concentration of CSNK1A1 was adjusted depending of the activity of the enzyme lot and was chosen appropriate to have the assay in the linear range, a typical concentration is 0.15 ng/μL. The reaction was stopped by the addition of 2.5 μL of “ADP-Glo-reagent” (1:1.5 fold diluted with water) and the resulting mixture was incubated at 22° C. for 1 h to convert the ATP not consumed in the kinase reaction completely […]. Subsequently 2.5 μL of the “kinase detection reagent” (1.2 fold more concentrated than recommended by the producer) were added, the resulting mixture was incubated at 22° C. for 1 h and then the luminescence measured with a suitable measurement instrument (e.g. Viewlux™ from Perkin-Elmer). The amount of emitted light was taken as a measure for the amount of ADP generated and thereby for the activity of the CSNK1A1.
In general terms: In ADP-Glo the light output rises with the ADP produced.

For experiment [4], the target named is human CSNK1D (Homo sapiens (Human), UniProt P48730). The experiment is described as follows: CSNK1D Assay (ADP-Glo, 1 μM ATP). The following applies: read-out: CSNK1D IC50 [mol/l] (median). Put shortly: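 GST-tagged full-length human CSNK1D from baculovirus-infected insect cells, typically ~0.5 ng/μL, with biotinylated peptide substrate and 1 μM ATP in HEPES pH 7.5 buffer. Compound is preincubated with enzyme 15 min at 22 °C. ADP formed is quantified by ADP-Glo luminescence.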
Chain of human CSNK1D (P48730 whole entry): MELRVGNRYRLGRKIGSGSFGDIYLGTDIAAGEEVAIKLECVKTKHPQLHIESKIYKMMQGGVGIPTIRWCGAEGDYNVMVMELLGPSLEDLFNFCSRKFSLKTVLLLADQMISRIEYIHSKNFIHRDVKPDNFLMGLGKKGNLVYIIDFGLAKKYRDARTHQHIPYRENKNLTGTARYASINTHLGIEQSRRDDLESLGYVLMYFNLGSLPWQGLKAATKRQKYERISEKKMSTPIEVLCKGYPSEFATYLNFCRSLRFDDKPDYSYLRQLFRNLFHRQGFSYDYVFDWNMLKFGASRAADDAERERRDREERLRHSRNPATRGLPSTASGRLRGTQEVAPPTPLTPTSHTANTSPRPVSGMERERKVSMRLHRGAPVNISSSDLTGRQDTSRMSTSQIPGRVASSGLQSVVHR

The target in experiment [5] is T1, human CSNK1A1. The experiment is described as follows: CSNK1A1 Assay 2 (ADP-Glo, 1 μM ATP). The following applies: substrate biotin-Ahx-KRRRAL-pS-VASLPGL, read-out: CSNK1A1 Assay 2 IC50 [mol/l] (median). Put shortly:
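Full-length human CSNK1A1 as an N-terminal GST fusion (baculovirus/insect cells) with biotinylated peptide substrate biotin-Ahx-KRRRAL-pS-VASLPGL and 1 μM ATP, in HEPES pH 7.5 buffer. Compounds were pre-incubated with enzyme (~0.0375 ng/μL) for 15 min at 22 °C. Generated ADP was read by ADP-Glo luminescence as the activity measure.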

T1 sequence (P48729 whole entry): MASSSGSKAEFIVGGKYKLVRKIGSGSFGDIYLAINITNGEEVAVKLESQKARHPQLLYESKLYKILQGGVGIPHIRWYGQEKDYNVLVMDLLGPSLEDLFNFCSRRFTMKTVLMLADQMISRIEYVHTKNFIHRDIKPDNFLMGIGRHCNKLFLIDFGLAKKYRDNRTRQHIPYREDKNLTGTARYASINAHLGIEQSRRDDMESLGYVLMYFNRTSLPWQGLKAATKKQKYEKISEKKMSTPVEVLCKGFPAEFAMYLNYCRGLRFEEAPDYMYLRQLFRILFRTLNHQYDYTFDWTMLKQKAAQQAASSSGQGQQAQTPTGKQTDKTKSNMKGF

Regarding `CN1CCc2[nH]c(-c3ccnc(NC(=O)Cc4ccccc4)c3)c(Nc3ccccc3)c2C1=O` [Example 2, N-[4-(3-anilino-5-methyl-4-oxo-4,5,6,7-tetrahydro-1H-pyrrolo[3,2-c]pyridin-2-yl)pyridin-2-yl]-2-phenylacetamide], the IC50 in experiment [1] was 114 nM; in experiment [2] it was 1170 nM; in experiment [3], 3.95 nM; in experiment [4], 5.41 nM.
Turning to `Cc1cc(CC(=O)Nc2cc(-c3[nH]c4c(c3Nc3ccccc3)C(=O)N(C)CC4)ccn2)ccc1F` [Example 3, N-[4-(3-anilino-5-methyl-4-oxo-4,5,6,7-tetrahydro-1H-pyrrolo[3,2-c]pyridin-2-yl)pyridin-2-yl]-2-(4-fluoro-3-methylphenyl)acetamide], the IC50 turned out to be 78.4 nM in experiment [1], 2130 nM in experiment [2], 4.28 nM in experiment [3] and 5.66 nM in experiment [4].
With `CN1CCc2[nH]c(-c3ccnc(NC(=O)Cc4ccc(F)cc4)c3)c(Nc3ccccn3)c2C1=O` [Example 12, 2-(4-fluorophenyl)-N-(4-{5-methyl-4-oxo-3-[(pyridin-2-yl)amino]-4,5,6,7-tetrahydro-1H-pyrrolo[3,2-c]pyridin-2-yl}pyridin-2-yl)acetamide], the IC50 in experiment [1] was 5.2 nM; in experiment [2], above 20000 nM; in experiment [3], 2.32 nM; in experiment [4], 10.2 nM.
Consider `CN(C)CCNC(=O)c1ccc(CC(=O)Nc2cc(-c3[nH]c4c(c3Nc3ccccc3)C(=O)N(C)CC4)ccn2)cc1` [Example 155, 4-(2-{[4-(3-anilino-5-methyl-4-oxo-4,5,6,7-tetrahydro-1H-pyrrolo[3,2-c]pyridin-2-yl)pyridin-2-yl]amino}-2-oxoethyl)-N-[2-(dimethylamino)ethyl]benzamide], for which the IC50 turned out to be 48.5 nM in experiment [1], 476 nM in experiment [2], 3.12 nM in experiment [5] and 7.01 nM in experiment [4].
The like results for `CN1CCc2[nH]c(-c3ccnc(NC(=O)Cc4c(F)cc(F)cc4F)c3)c(Nc3ccccc3)c2C1=O` [Example 164, N-[4-(3-anilino-5-methyl-4-oxo-4,5,6,7-tetrahydro-1H-pyrrolo[3,2-c]pyridin-2-yl)pyridin-2-yl]-2-(2,4,6-trifluorophenyl)acetamide] were, in that order, 149 nM, 419 nM, 3.83 nM and 3.08 nM.
